Measurements from ChEMBL document CHEMBL5724914, “Linking interpersonal differences in gut microbiota composition and drug biotransformation activity” (2024).

Settings: human gut metagenome, 24 h, 2 µM
Also: call rule not given here.

Row | Bacterial Biotransformation | Compound
1 | Compound NOT metabolized | CC(C)c1nc(CN(C)C(=O)N[C@H](C(=O)N[C@@H](Cc2ccccc2)C[C@H](O)[C@H](Cc2ccccc2)NC(=O)OCc2cncs2)C(C)C)cs1 [RITONAVIR]
2 | Compound NOT metabolized | NC12CC3CC(CC(C3)C1)C2 [AMANTADINE]
3 | Compound metabolized | CN1CCc2c(c3ccccc3n2Cc2ccccc2)C1.CN1CCc2c(c3ccccc3n2Cc2ccccc2)C1.O=S(=O)(O)c1cccc2c(S(=O)(=O)O)cccc12

Assay: (§1) The drug is tested on Z-005 corresponding to metagenome with ENA study accession number: PRJEB37062 and ENA sample accession number: ERS12561805 for biotransformation under anaerobic condition. The drug concentrations were measured over 9 timepoints collected between 0 and 24 hours of incubation by liquid-chromatography-coupled mass spectrometry (LC–MS)
Settings: 2 µM

Row | Bacterial Biotransformation | Compound
4 | Compound metabolized | CC(C)c1nc(CN(C)C(=O)N[C@H](C(=O)N[C@@H](Cc2ccccc2)C[C@H](O)[C@H](Cc2ccccc2)NC(=O)OCc2cncs2)C(C)C)cs1 [RITONAVIR]
5 | Compound NOT metabolized | NC12CC3CC(CC(C3)C1)C2 [AMANTADINE]
6 | Compound NOT metabolized | CN1CCc2c(c3ccccc3n2Cc2ccccc2)C1.CN1CCc2c(c3ccccc3n2Cc2ccccc2)C1.O=S(=O)(O)c1cccc2c(S(=O)(=O)O)cccc12

Settings: human gut metagenome, 24 h, 2 µM
Remark: another data set of the same source

Row | Bacterial Biotransformation | Compound
7 | Compound metabolized | CC(C)c1nc(CN(C)C(=O)N[C@H](C(=O)N[C@@H](Cc2ccccc2)C[C@H](O)[C@H](Cc2ccccc2)NC(=O)OCc2cncs2)C(C)C)cs1 [RITONAVIR]
8 | Compound NOT metabolized | NC12CC3CC(CC(C3)C1)C2 [AMANTADINE]
9 | Compound NOT metabolized | CN1CCc2c(c3ccccc3n2Cc2ccccc2)C1.CN1CCc2c(c3ccccc3n2Cc2ccccc2)C1.O=S(=O)(O)c1cccc2c(S(=O)(=O)O)cccc12

Assay: (§2) The drug is tested on Z-018 corresponding to pig gut metagenome with ENA study accession number: PRJEB37062 and ENA sample accession number: ERS12561817 for biotransformation under anaerobic condition. The drug concentrations were measured over 9 timepoints collected between 0 and 24 hours of incubation by liquid-chromatography-coupled mass spectrometry (LC–MS)
Settings: 2 µM

Row | Bacterial Biotransformation | Compound
10 | Compound metabolized | CC(C)c1nc(CN(C)C(=O)N[C@H](C(=O)N[C@@H](Cc2ccccc2)C[C@H](O)[C@H](Cc2ccccc2)NC(=O)OCc2cncs2)C(C)C)cs1 [RITONAVIR]
11 | Compound NOT metabolized | NC12CC3CC(CC(C3)C1)C2 [AMANTADINE]
12 | Compound NOT metabolized | CN1CCc2c(c3ccccc3n2Cc2ccccc2)C1.CN1CCc2c(c3ccccc3n2Cc2ccccc2)C1.O=S(=O)(O)c1cccc2c(S(=O)(=O)O)cccc12

Settings: human gut metagenome, 24 h, 2 µM
Remark: another data set of the same source

Row | Bacterial Biotransformation | Compound
13 | Compound metabolized | CC(C)c1nc(CN(C)C(=O)N[C@H](C(=O)N[C@@H](Cc2ccccc2)C[C@H](O)[C@H](Cc2ccccc2)NC(=O)OCc2cncs2)C(C)C)cs1 [RITONAVIR]
14 | Compound NOT metabolized | NC12CC3CC(CC(C3)C1)C2 [AMANTADINE]
15 | Compound metabolized | CN1CCc2c(c3ccccc3n2Cc2ccccc2)C1.CN1CCc2c(c3ccccc3n2Cc2ccccc2)C1.O=S(=O)(O)c1cccc2c(S(=O)(=O)O)cccc12

Settings: human gut metagenome, 24 h, 2 µM
Remark: another data set of the same source

Row | Bacterial Biotransformation | Compound
16 | Compound metabolized | CC(C)c1nc(CN(C)C(=O)N[C@H](C(=O)N[C@@H](Cc2ccccc2)C[C@H](O)[C@H](Cc2ccccc2)NC(=O)OCc2cncs2)C(C)C)cs1 [RITONAVIR]
17 | Compound NOT metabolized | NC12CC3CC(CC(C3)C1)C2 [AMANTADINE]
18 | Compound NOT metabolized | CN1CCc2c(c3ccccc3n2Cc2ccccc2)C1.CN1CCc2c(c3ccccc3n2Cc2ccccc2)C1.O=S(=O)(O)c1cccc2c(S(=O)(=O)O)cccc12

Assay: as §2, with “Z-007” for “Z-018”, “rat” for “pig”, “ERS12561807” for “ERS12561817”
Settings: 2 µM

Row | Bacterial Biotransformation | Compound
19 | Compound NOT metabolized | CC(C)c1nc(CN(C)C(=O)N[C@H](C(=O)N[C@@H](Cc2ccccc2)C[C@H](O)[C@H](Cc2ccccc2)NC(=O)OCc2cncs2)C(C)C)cs1 [RITONAVIR]
20 | Compound NOT metabolized | NC12CC3CC(CC(C3)C1)C2 [AMANTADINE]
21 | Compound NOT metabolized | CN1CCc2c(c3ccccc3n2Cc2ccccc2)C1.CN1CCc2c(c3ccccc3n2Cc2ccccc2)C1.O=S(=O)(O)c1cccc2c(S(=O)(=O)O)cccc12

Assay: as §2, with “WLS-240” for “Z-018”, “human” for “pig”, “ERS12561773” for “ERS12561817”
Settings: 2 µM

Row | Bacterial Biotransformation | Compound
22 | Compound metabolized | CC(C)c1nc(CN(C)C(=O)N[C@H](C(=O)N[C@@H](Cc2ccccc2)C[C@H](O)[C@H](Cc2ccccc2)NC(=O)OCc2cncs2)C(C)C)cs1 [RITONAVIR]
23 | Compound NOT metabolized | NC12CC3CC(CC(C3)C1)C2 [AMANTADINE]
24 | Compound NOT metabolized | CN1CCc2c(c3ccccc3n2Cc2ccccc2)C1.CN1CCc2c(c3ccccc3n2Cc2ccccc2)C1.O=S(=O)(O)c1cccc2c(S(=O)(=O)O)cccc12

Assay: as §2, with “Z-003” for “Z-018”, “ERS12561803” for “ERS12561817”
Settings: 2 µM

Row | Bacterial Biotransformation | Compound
25 | Compound metabolized | CC(C)c1nc(CN(C)C(=O)N[C@H](C(=O)N[C@@H](Cc2ccccc2)C[C@H](O)[C@H](Cc2ccccc2)NC(=O)OCc2cncs2)C(C)C)cs1 [RITONAVIR]
26 | Compound NOT metabolized | NC12CC3CC(CC(C3)C1)C2 [AMANTADINE]
27 | Compound NOT metabolized | CN1CCc2c(c3ccccc3n2Cc2ccccc2)C1.CN1CCc2c(c3ccccc3n2Cc2ccccc2)C1.O=S(=O)(O)c1cccc2c(S(=O)(=O)O)cccc12

Settings: human gut metagenome, 24 h, 2 µM
Remark: another data set of the same source

Row | Bacterial Biotransformation | Compound
28 | Compound metabolized | CC(C)c1nc(CN(C)C(=O)N[C@H](C(=O)N[C@@H](Cc2ccccc2)C[C@H](O)[C@H](Cc2ccccc2)NC(=O)OCc2cncs2)C(C)C)cs1 [RITONAVIR]
29 | Compound NOT metabolized | NC12CC3CC(CC(C3)C1)C2 [AMANTADINE]
30 | Compound metabolized | CN1CCc2c(c3ccccc3n2Cc2ccccc2)C1.CN1CCc2c(c3ccccc3n2Cc2ccccc2)C1.O=S(=O)(O)c1cccc2c(S(=O)(=O)O)cccc12

Assay: as §1, with “Z-012” for “Z-005”, “ERS12561812” for “ERS12561805”
Settings: 2 µM

Row | Bacterial Biotransformation | Compound
31 | Compound metabolized | CC(C)c1nc(CN(C)C(=O)N[C@H](C(=O)N[C@@H](Cc2ccccc2)C[C@H](O)[C@H](Cc2ccccc2)NC(=O)OCc2cncs2)C(C)C)cs1 [RITONAVIR]
32 | Compound NOT metabolized | NC12CC3CC(CC(C3)C1)C2 [AMANTADINE]
33 | Compound NOT metabolized | CN1CCc2c(c3ccccc3n2Cc2ccccc2)C1.CN1CCc2c(c3ccccc3n2Cc2ccccc2)C1.O=S(=O)(O)c1cccc2c(S(=O)(=O)O)cccc12

Settings: human gut metagenome, 24 h, 2 µM
Remark: another data set of the same source

Row | Bacterial Biotransformation | Compound
34 | Compound NOT metabolized | CC(C)c1nc(CN(C)C(=O)N[C@H](C(=O)N[C@@H](Cc2ccccc2)C[C@H](O)[C@H](Cc2ccccc2)NC(=O)OCc2cncs2)C(C)C)cs1 [RITONAVIR]
35 | Compound NOT metabolized | NC12CC3CC(CC(C3)C1)C2 [AMANTADINE]
36 | Compound NOT metabolized | CN1CCc2c(c3ccccc3n2Cc2ccccc2)C1.CN1CCc2c(c3ccccc3n2Cc2ccccc2)C1.O=S(=O)(O)c1cccc2c(S(=O)(=O)O)cccc12

Assay: as §2, with “Z-029” for “Z-018”, “rat” for “pig”, “ERS12561828” for “ERS12561817”
Settings: 2 µM

Row | Bacterial Biotransformation | Compound
37 | Compound NOT metabolized | CC(C)c1nc(CN(C)C(=O)N[C@H](C(=O)N[C@@H](Cc2ccccc2)C[C@H](O)[C@H](Cc2ccccc2)NC(=O)OCc2cncs2)C(C)C)cs1 [RITONAVIR]
38 | Compound NOT metabolized | NC12CC3CC(CC(C3)C1)C2 [AMANTADINE]
39 | Compound NOT metabolized | CN1CCc2c(c3ccccc3n2Cc2ccccc2)C1.CN1CCc2c(c3ccccc3n2Cc2ccccc2)C1.O=S(=O)(O)c1cccc2c(S(=O)(=O)O)cccc12

Settings: human gut metagenome, 24 h, 2 µM
Remark: another data set of the same source

Row | Bacterial Biotransformation | Compound
40 | Compound metabolized | CC(C)c1nc(CN(C)C(=O)N[C@H](C(=O)N[C@@H](Cc2ccccc2)C[C@H](O)[C@H](Cc2ccccc2)NC(=O)OCc2cncs2)C(C)C)cs1 [RITONAVIR]
41 | Compound NOT metabolized | NC12CC3CC(CC(C3)C1)C2 [AMANTADINE]
42 | Compound NOT metabolized | CN1CCc2c(c3ccccc3n2Cc2ccccc2)C1.CN1CCc2c(c3ccccc3n2Cc2ccccc2)C1.O=S(=O)(O)c1cccc2c(S(=O)(=O)O)cccc12

Assay: as §2, with “WLS-082” for “Z-018”, “human” for “pig”, “ERS12561751” for “ERS12561817”
Settings: 2 µM

Row | Bacterial Biotransformation | Compound
43 | Compound metabolized | CC(C)c1nc(CN(C)C(=O)N[C@H](C(=O)N[C@@H](Cc2ccccc2)C[C@H](O)[C@H](Cc2ccccc2)NC(=O)OCc2cncs2)C(C)C)cs1 [RITONAVIR]
44 | Compound NOT metabolized | NC12CC3CC(CC(C3)C1)C2 [AMANTADINE]
45 | Compound NOT metabolized | CN1CCc2c(c3ccccc3n2Cc2ccccc2)C1.CN1CCc2c(c3ccccc3n2Cc2ccccc2)C1.O=S(=O)(O)c1cccc2c(S(=O)(=O)O)cccc12

Settings: human gut metagenome, 24 h, 2 µM
Remark: another data set of the same source

Row | Bacterial Biotransformation | Compound
46 | Compound metabolized | CC(C)c1nc(CN(C)C(=O)N[C@H](C(=O)N[C@@H](Cc2ccccc2)C[C@H](O)[C@H](Cc2ccccc2)NC(=O)OCc2cncs2)C(C)C)cs1 [RITONAVIR]
47 | Compound NOT metabolized | NC12CC3CC(CC(C3)C1)C2 [AMANTADINE]
48 | Compound NOT metabolized | CN1CCc2c(c3ccccc3n2Cc2ccccc2)C1.CN1CCc2c(c3ccccc3n2Cc2ccccc2)C1.O=S(=O)(O)c1cccc2c(S(=O)(=O)O)cccc12

Settings: human gut metagenome, 24 h, 2 µM
Remark: another data set of the same source

Row | Bacterial Biotransformation | Compound
49 | Compound metabolized | CC(C)c1nc(CN(C)C(=O)N[C@H](C(=O)N[C@@H](Cc2ccccc2)C[C@H](O)[C@H](Cc2ccccc2)NC(=O)OCc2cncs2)C(C)C)cs1 [RITONAVIR]
50 | Compound NOT metabolized | NC12CC3CC(CC(C3)C1)C2 [AMANTADINE]
51 | Compound metabolized | CN1CCc2c(c3ccccc3n2Cc2ccccc2)C1.CN1CCc2c(c3ccccc3n2Cc2ccccc2)C1.O=S(=O)(O)c1cccc2c(S(=O)(=O)O)cccc12

Settings: human gut metagenome, 24 h, 2 µM
Remark: another data set of the same source

Row | Bacterial Biotransformation | Compound
52 | Compound metabolized | CC(C)c1nc(CN(C)C(=O)N[C@H](C(=O)N[C@@H](Cc2ccccc2)C[C@H](O)[C@H](Cc2ccccc2)NC(=O)OCc2cncs2)C(C)C)cs1 [RITONAVIR]
53 | Compound NOT metabolized | NC12CC3CC(CC(C3)C1)C2 [AMANTADINE]
54 | Compound NOT metabolized | CN1CCc2c(c3ccccc3n2Cc2ccccc2)C1.CN1CCc2c(c3ccccc3n2Cc2ccccc2)C1.O=S(=O)(O)c1cccc2c(S(=O)(=O)O)cccc12

Settings: human gut metagenome, 24 h, 2 µM
Remark: another data set of the same source

Row | Bacterial Biotransformation | Compound
55 | Compound NOT metabolized | CC(C)c1nc(CN(C)C(=O)N[C@H](C(=O)N[C@@H](Cc2ccccc2)C[C@H](O)[C@H](Cc2ccccc2)NC(=O)OCc2cncs2)C(C)C)cs1 [RITONAVIR]
56 | Compound NOT metabolized | NC12CC3CC(CC(C3)C1)C2 [AMANTADINE]
57 | Compound NOT metabolized | CN1CCc2c(c3ccccc3n2Cc2ccccc2)C1.CN1CCc2c(c3ccccc3n2Cc2ccccc2)C1.O=S(=O)(O)c1cccc2c(S(=O)(=O)O)cccc12

Assay: as §2, with “WLS-350” for “Z-018”, “human” for “pig”, “ERS12561789” for “ERS12561817”
Settings: 2 µM

Row | Bacterial Biotransformation | Compound
58 | Compound NOT metabolized | CC(C)c1nc(CN(C)C(=O)N[C@H](C(=O)N[C@@H](Cc2ccccc2)C[C@H](O)[C@H](Cc2ccccc2)NC(=O)OCc2cncs2)C(C)C)cs1 [RITONAVIR]
59 | Compound NOT metabolized | NC12CC3CC(CC(C3)C1)C2 [AMANTADINE]
60 | Compound NOT metabolized | CN1CCc2c(c3ccccc3n2Cc2ccccc2)C1.CN1CCc2c(c3ccccc3n2Cc2ccccc2)C1.O=S(=O)(O)c1cccc2c(S(=O)(=O)O)cccc12
